# Settings: buffer; pH 7.4; 200.0 µM
row,Structure (SMILES),solubility kinetic
1,Cc1nc2ccccn2c1C(=O)NC1CCCC1,> 36.5 µg/mL
2,COc1ccc2[nH]cc(CCNS(=O)(=O)c3ccc(C)cc3)c2c1,50.6 µg/mL
3,CC1COc2ccccc2N1C(=O)c1ccc(Cl)cc1 (stereo not given),31.3 µg/mL
4,O=C(/C=C/c1ccccc1)Nc1nc(-c2ccncc2)cs1,0.9 µg/mL
5,CC(=O)NS(=O)(=O)c1ccc(NC(=O)CSc2ccccc2)cc1,42.5 µg/mL
6,CSc1ccc(NC(=O)NCc2cccnc2)cc1,> 41 µg/mL
7,O=C(O)CC1(CC(=O)Nc2ccc(F)c(Cl)c2)CCCCC1,> 49.2 µg/mL
8,Nc1ncc2c(n1)-c1ccoc1CC2,> 28.1 µg/mL
9,N#CCC(=O)Nc1ccc(C(=O)OCC(=O)N2CCN(C(=O)c3ccco3)CC2)cc1,> 63.7 µg/mL
10,COc1ccc(NC(=O)CC(NC(C)c2ccccc2)C(=O)O)cc1 (stereo not given),44.2 µg/mL
11,COc1ccc(Nc2ncnc3sc(C)cc23)c(OC)c1.Cl,> 50.7 µg/mL
12,COc1cccc2cc(C(C)OC(=O)Nc3ccc(C)cc3)oc12 (stereo not given),< 0.7 µg/mL
13,O=C1CC(c2ccccc2F)c2c(c3ccccc3[nH]c2=O)O1 (stereo not given),11.4 µg/mL
14,C/C(=C/c1ccccc1)C(=O)N1CCN(c2ccc(F)cc2)CC1,36.1 µg/mL
15,Cc1ccc(C(=O)N2CCCCC2C(=O)O)o1 (stereo not given),> 35.6 µg/mL
16,CN(c1c[nH]c(=O)[nH]c1=O)C1CCCCC1,> 33.5 µg/mL
17,O=C(CSc1ncccn1)Nc1ccc(Cl)c(S(=O)(=O)N2CCOCC2)c1,> 64.3 µg/mL
18,O=C(Cc1c(Cl)cccc1Cl)Nc1ccncc1,> 42.2 µg/mL
19,O=C(C1=C(O)C(=O)N(Cc2cccnc2)C1c1cccc(Oc2ccccc2)c1)c1ccco1 (stereo not given),> 67.9 µg/mL
20,CCSc1ccccc1C(=O)NCc1cccnc1,> 40.9 µg/mL
21,COc1ccc(C(=O)O/N=C(\N)c2cccc(C)c2)cc1OC,14.7 µg/mL
22,CC1CC(C)CN(C(=O)COC(=O)COc2ccccc2C#N)C1 (stereo not given),> 49.6 µg/mL
23,CCC1CCCCN1C(=O)c1ccc([N+](=O)[O-])o1 (stereo not given),> 37.8 µg/mL
24,C=CCn1c(O)c(/C=C2\C=Nc3ccccc32)c(=O)[nH]c1=O,4 µg/mL

row,Structure (SMILES),solubility kinetic
1,CC1NC(=S)N(C2CCCCC2)C1=O (stereo not given),> 31.8 µg/mL
2,O=C(NCCCN1CCOCC1)C(c1ccccc1)c1ccccc1,> 50.8 µg/mL
3,OCCCNc1ncnc2c1[nH]c1ccccc12,35.6 µg/mL
4,O=C(Nc1ccccc1)N1CCN(C(=O)Nc2ccccc2)CC1,3.1 µg/mL
5,Cc1ccccc1C(=O)OCC(=O)NCc1ccco1,> 41 µg/mL
6,COC(=O)c1ccc(NC(=O)[C@H](C)NC(N)=O)cc1,> 39.8 µg/mL
7,Cc1ccccc1OCCn1c(=S)[nH]c2ccccc21,0.5 µg/mL
8,O=C(COC(=O)c1ccncc1)Nc1ccc2c(c1)OCO2,> 45 µg/mL
9,COC(=O)c1ccc(NC(=S)NN2CCOCC2)cc1,> 44.3 µg/mL
10,CCn1c(=O)c2c(nc(SCC(=O)N3CCC(C)CC3)n2C)n(C)c1=O,> 56.9 µg/mL
11,CCN(Cc1ccccc1)Cc1ccc(OCc2ccccc2)c(OC)c1,10.3 µg/mL
12,O=S(=O)(c1ccc(Cl)cc1)N1CCN(c2ncnc3sccc23)CC1,7 µg/mL
13,S=c1[nH]c(-c2ccccc2)cn1-c1ccccc1,14.9 µg/mL
14,Cc1cc(C(=O)N2CCN(Cc3ccccc3)CC2)ccc1[N+](=O)[O-],> 50.9 µg/mL
15,CC(=O)N(C)c1ccc(N=Cc2c(O)ccc3ccccc23)cc1,> 47.8 µg/mL
16,O=C(CSc1ncccc1C(=O)O)NC1CCCCCCC1,47.3 µg/mL
17,CC1=C(C)CC(C(=O)NCCc2ccc(F)cc2)C(C(=O)O)C1 (stereo not given),> 47.9 µg/mL
18,N#Cc1ccccc1CN1C(=O)c2ccccc2S1(=O)=O,0.8 µg/mL
19,COc1ccc(CNC(=O)CN(c2ccccc2OC)S(=O)(=O)c2cccs2)cc1,10.7 µg/mL
20,N#CCCC(CCC#N)C1=NCCc2ccccc21,36.4 µg/mL
21,Cc1ccc(CN(C)Cc2cc(=O)oc3cc(C)c(Cl)cc23)cc1,< 0.7 µg/mL
22,CCc1ccc(NC(=S)Nc2ccc3[nH]c(=O)[nH]c3c2)cc1,13.5 µg/mL
23,CC1(c2ccc(Cl)cc2)NC(=O)N(CN2CCOCC2)C1=O (stereo not given),> 48.6 µg/mL
24,COC(=O)c1cc(OC)c(OC)cc1NC(=O)Nc1ccccc1F,2.4 µg/mL

row,Structure (SMILES),solubility kinetic
1,C(=N\N1CCOCC1)/c1ccsc1.O=P(O)(O)O,> 44.1 µg/mL
2,Fc1cccc(F)c1-c1nc(-c2ccncc2)no1,14.7 µg/mL
3,CCOC(=O)c1ccc(CC2SC(N)=NC2=O)cc1 (stereo not given),36.6 µg/mL
4,O=C1NC2=C(C(=O)CCC2)C(c2ccc(OC(F)F)cc2)N1 (stereo not given),41.8 µg/mL
5,Cc1cccc(Nc2nnc(SCC(=O)NCC3CCCO3)s2)c1 (stereo not given),> 54.7 µg/mL
6,O=C(NCC1CC1)c1ccccc1Cl,> 31.5 µg/mL
7,CC(C)c1ccc(OCC(=O)N2CCc3ccccc3C2)cc1,9 µg/mL
8,CC1(C)Cc2c(C#N)c(NCCO)nc(-c3ccco3)c2CO1,37.4 µg/mL
9,Cc1ccc2c(c1)C(O)(CC(=O)c1cccc(-n3cccc3)c1)C(=O)N2 (stereo not given),7.2 µg/mL
10,CCCCNS(=O)(=O)c1cc2c3c(c1)CCN3C(=O)CC2,44.3 µg/mL
11,Cc1cc(-c2ccccc2)nc2c(Br)c(=O)[nH]n12,> 45.6 µg/mL
12,Cc1cc(C)c2sc(C)[n+](CCCS(=O)(=O)[O-])c2c1,38.8 µg/mL
13,COc1ccc(Nc2nc3ccccc3n2C)cc1,36.5 µg/mL
14,Cc1cccn2c(=O)c(C(=O)NC3CCCCC3)c(O)nc12,5.4 µg/mL
15,COc1cc(-c2ccc(NC(C)=O)c(OC)c2)ccc1NC(C)=O,10.1 µg/mL
16,Cc1cc([N+](=O)[O-])ccc1NC(=O)c1cc2ccccc2o1,< 0.3 µg/mL
17,O=C(c1ccc([N+](=O)[O-])cc1[N+](=O)[O-])N1CCc2ccccc21,4.2 µg/mL
18,O=C(NCc1ccccc1Br)c1ccc2c(c1)OCCO2,11.6 µg/mL
19,COc1ccc(-c2nc3ccc(C)cc3c(=O)o2)cc1OC,< 0.6 µg/mL
20,CC1(C)CC(=O)C=C(Nc2ccccc2N)C1,> 34.5 µg/mL
21,CCOC(=O)c1cnc(Cc2ccccc2)[nH]c1=O,37.3 µg/mL
22,CCN(C(=O)CSc1cccc[n+]1[O-])C1CCCCC1,> 44.2 µg/mL
23,CN1C(=O)C(O)(CC(=O)/C=C/c2ccco2)c2ccccc21 (stereo not given),> 44.6 µg/mL
24,COc1cccc(/C=C/C(=O)Nc2ccc3[nH]c(=O)[nH]c3c2)c1,6.7 µg/mL

row,Structure (SMILES),solubility kinetic
1,O=C(O)COc1ccc(Br)cc1/C=N\Nc1ccccn1,> 52.5 µg/mL
2,COc1cc(CNCc2ccco2)cc(OC)c1O.Cl,41.4 µg/mL
3,O=C(Cc1nc(-c2cnccn2)no1)NNC(=O)Nc1ccccc1,> 50.9 µg/mL
4,c1csc(-c2cc(N3CCCCC3)c3ccccc3n2)c1,1.1 µg/mL
5,Cc1ccc(N2C(=O)CS/C2=N\C(=S)Nc2ccccc2)cc1,1 µg/mL
6,C=CCNc1nc(C)c(CNc2c(C)cc(C)cc2C)nc1C#N,0.9 µg/mL
7,COc1ccc(/C=C/C(=O)c2cc3c(cc2N)OCO3)cc1,1.6 µg/mL
8,O=C(OCC(=O)N1CCCC1=O)c1cccc([N+](=O)[O-])c1,> 43.8 µg/mL
9,N#CC1=C(N)Oc2cc(N)ccc2C1c1cccc(Br)c1 (stereo not given),3.5 µg/mL
10,C[n+]1cn(Cc2ccc(C#N)cc2)c2ccccc21.[Cl-],39.4 µg/mL
11,CC(=O)c1ccc(C(=O)N2CCCC(Nc3ccccc3)C2)s1 (stereo not given),41.2 µg/mL
12,COc1cccc(NC(=O)COc2ccccc2)c1,> 38.6 µg/mL
13,O=S(=O)(Nc1ccccc1N1CCOCC1)c1c(F)cc(F)cc1Br,2.3 µg/mL
14,COC(=O)c1cc(S(=O)(=O)Nc2cccc(-c3cnco3)c2)oc1C,50.3 µg/mL
15,Cc1ccc(NC(=O)N2CCC(NC(=O)c3ccco3)CC2)cc1,> 49.1 µg/mL
16,CC(NC(=O)CS(=O)(=O)c1ccccc1)c1ccccc1 (stereo not given),> 45.5 µg/mL
17,Cc1ccc(N2C(=O)CC3(CCCC3)CC2=O)cc1,34.3 µg/mL
18,O=C(O)C1C2CCC(C2)C1C(=O)N1CCCC1 (stereo not given),> 35.6 µg/mL
19,COc1ccccc1Oc1nc(-c2cccnc2)nc2ccccc12,2.1 µg/mL
20,COc1nc(C)cc(C)c1S(=O)(=O)c1ccccc1,41.3 µg/mL
21,Cc1coc(C)c1C(=O)Nc1ccc2ccccc2c1,2.5 µg/mL
22,COc1cccc(CNC(=O)CNC(=O)c2cccs2)c1,> 45.7 µg/mL
23,CC1CN(C)C(C)C/C1=N/Oc1ccccc1[N+](=O)[O-].Cl (stereo not given),46.2 µg/mL
24,c1ccc(-c2nc3nc4ccccc4nc3n2CC2CCCO2)cc1 (stereo not given),> 49.6 µg/mL

row,Structure (SMILES),solubility kinetic
1,COc1ccc(NS(=O)(=O)c2cccc(C(=O)OCC(=O)c3c(N)n(C)c(=O)n(C)c3=O)c2)cc1,16.4 µg/mL
2,COc1ccc(NC(=O)O/N=C/c2ccccc2)cc1,5 µg/mL
3,O=C(c1ccc2ccccc2n1)N(CCO)Cc1ccccc1,41.4 µg/mL
4,CC1CCN(C(=O)NC(=O)c2ccccc2)CC1,> 36.9 µg/mL
5,O=C1NC2(CCCCCC2)N=C1c1ccc(Br)cc1,0.9 µg/mL
6,COCCn1c(SCC(=O)NNC(=O)c2ccccc2)nc2ccccc21,> 57.7 µg/mL
7,COc1ccc(CN2C(=O)CSC2c2ccncc2)cc1 (stereo not given),> 45.1 µg/mL
8,NC(=O)C1Cc2ccccc2CN1S(=O)(=O)c1ccc(Cl)s1 (stereo not given),> 53.5 µg/mL
9,S=C(Nc1cccc(Cl)c1)Nc1ccc2c(c1)OCCO2,40.4 µg/mL
10,COc1ccc(NC(=O)Nc2cccc3ccccc23)cc1OC,0.4 µg/mL
11,CC1=C(C(=O)NCc2ccc(Cl)cc2)C2(CCC(C)CC2)OC1=O (stereo not given),4.3 µg/mL
12,CCCCOC(=O)c1ccc(NC(=O)C(=O)NCCN(CC)CC)cc1,44.3 µg/mL
13,c1ccc2cc(CNCc3cccc4ccccc34)ccc2c1,4.1 µg/mL
14,COc1ccc(-n2ccc3ccccc32)cc1,< 0.5 µg/mL
15,Cc1cc(N2CCCC2)ccc1C=C(C#N)C#N,0.5 µg/mL
16,O=c1cnc2ccccc2n1Cc1ccc(Br)cc1,2.7 µg/mL
17,COC(=O)c1ccc(S(=O)(=O)c2ccc([N+](=O)[O-])cc2)cc1,0.9 µg/mL
18,Cc1cc(C(=O)NC2CCCc3ccccc32)ccc1[N+](=O)[O-] (stereo not given),10.3 µg/mL
19,COc1ccc2ccccc2c1CN1CCSCC1,21.5 µg/mL
20,CCCc1cc(C(=O)Nc2ccc(F)c(Cl)c2)no1,1.5 µg/mL
21,Cl.O=C(O)Cc1cnc[nH]1,> 24.4 µg/mL
22,O=c1[nH]c(/C=C\c2ccc(O)c(O)c2)nc(O)c1[N+](=O)[O-],> 43.7 µg/mL
23,O=C(NC1CCCCC1)c1cc(-c2ccc(O)cc2)on1,< 0.3 µg/mL
24,O=C(Nc1nc(-c2cccnc2)cs1)c1ccccc1[N+](=O)[O-],0.7 µg/mL

# — PubChem BioAssay AID1996
